In ChEMBL document CHEMBL1201862, “PubChem BioAssay data set” (2004):
The source made the active and inactive calls.

Experiments:
[1] = inhibitors of cytokine-induced nitrite release, dose response, cell-based, Griess absorbance, INS-1E, dry powder, set 3 (AID 488870); format: functional; conditions: Rattus norvegicus
INS1 = assay: inhibitors of cytokine-induced nitrite release, dose response, cell-based, Griess absorbance, INS-1E, dry powder, set 2 (AID 488868); format: functional; conditions: Rattus norvegicus
[2] = P. falciparum Dd2 growth inhibitors, dose response, SYBR Green, cherry-picked samples (AID 1159567); format: functional, cell-based
Hexokinase-1 = target: T1, Hexokinase-1 (Homo sapiens, UniProt P19367); assay: SAR analysis of small molecule inhibitors of hexokinase domain containing I (HKDC1) in the hexokinase 1 selectivity assay. [Related pubchem assays (depositor defined):AID493160, AID493190]; format: functional
T1 sequence (P19367 whole entry): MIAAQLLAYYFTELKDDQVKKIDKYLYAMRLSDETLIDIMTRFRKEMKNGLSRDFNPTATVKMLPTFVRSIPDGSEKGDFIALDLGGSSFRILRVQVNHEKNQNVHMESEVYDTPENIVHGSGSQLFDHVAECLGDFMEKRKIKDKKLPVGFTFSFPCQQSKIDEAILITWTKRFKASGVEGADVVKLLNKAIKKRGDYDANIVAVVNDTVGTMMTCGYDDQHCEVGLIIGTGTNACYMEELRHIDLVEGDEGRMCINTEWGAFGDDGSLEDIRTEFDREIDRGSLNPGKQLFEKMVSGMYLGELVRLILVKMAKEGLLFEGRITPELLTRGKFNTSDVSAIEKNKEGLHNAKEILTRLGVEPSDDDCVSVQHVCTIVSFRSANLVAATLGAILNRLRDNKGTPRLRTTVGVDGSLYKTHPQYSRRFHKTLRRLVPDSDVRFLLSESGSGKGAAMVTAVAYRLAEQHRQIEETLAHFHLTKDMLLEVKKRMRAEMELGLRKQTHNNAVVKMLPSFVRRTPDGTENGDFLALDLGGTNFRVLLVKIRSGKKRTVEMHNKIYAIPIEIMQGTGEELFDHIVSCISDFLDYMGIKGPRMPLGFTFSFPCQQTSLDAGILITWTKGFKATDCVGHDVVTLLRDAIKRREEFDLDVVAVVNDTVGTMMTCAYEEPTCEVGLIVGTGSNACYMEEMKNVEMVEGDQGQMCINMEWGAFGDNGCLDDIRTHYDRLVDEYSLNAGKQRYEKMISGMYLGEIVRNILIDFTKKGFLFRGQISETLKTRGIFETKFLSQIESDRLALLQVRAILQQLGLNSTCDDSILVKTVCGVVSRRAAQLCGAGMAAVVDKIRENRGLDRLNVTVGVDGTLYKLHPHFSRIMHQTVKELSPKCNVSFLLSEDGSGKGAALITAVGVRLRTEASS

Hexokinase HKDC1 = target: T2, Hexokinase HKDC1 (Homo sapiens, UniProt Q2TB90); assay: SAR analysis of small molecule inhibitors of hexokinase domain containing I (HKDC1). [Related pubchem assays (depositor defined):AID493160, AID493190]; format: functional
T2 sequence (Q2TB90 whole entry): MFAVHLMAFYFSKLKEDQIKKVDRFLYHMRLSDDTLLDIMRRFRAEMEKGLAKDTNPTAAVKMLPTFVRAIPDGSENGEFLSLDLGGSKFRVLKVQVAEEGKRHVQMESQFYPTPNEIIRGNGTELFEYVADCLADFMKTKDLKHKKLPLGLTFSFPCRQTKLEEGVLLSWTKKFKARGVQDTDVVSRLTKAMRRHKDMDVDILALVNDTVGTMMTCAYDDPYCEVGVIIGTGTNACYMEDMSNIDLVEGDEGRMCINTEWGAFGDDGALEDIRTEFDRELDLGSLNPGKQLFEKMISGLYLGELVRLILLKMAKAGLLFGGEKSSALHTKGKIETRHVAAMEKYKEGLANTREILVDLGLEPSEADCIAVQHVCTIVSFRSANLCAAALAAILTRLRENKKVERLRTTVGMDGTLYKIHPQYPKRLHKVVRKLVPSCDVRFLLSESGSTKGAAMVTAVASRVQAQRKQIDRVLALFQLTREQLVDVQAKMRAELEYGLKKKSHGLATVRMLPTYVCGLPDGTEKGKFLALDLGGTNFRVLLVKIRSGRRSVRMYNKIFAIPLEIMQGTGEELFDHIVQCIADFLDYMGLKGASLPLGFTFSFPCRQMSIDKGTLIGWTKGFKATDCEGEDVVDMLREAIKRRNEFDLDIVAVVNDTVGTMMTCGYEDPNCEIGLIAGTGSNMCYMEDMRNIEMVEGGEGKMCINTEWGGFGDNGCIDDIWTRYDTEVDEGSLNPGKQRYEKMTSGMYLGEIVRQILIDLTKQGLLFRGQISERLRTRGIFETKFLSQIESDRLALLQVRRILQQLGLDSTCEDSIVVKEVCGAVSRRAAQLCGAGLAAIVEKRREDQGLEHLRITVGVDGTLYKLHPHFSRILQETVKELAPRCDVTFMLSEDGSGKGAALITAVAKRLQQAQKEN

Insulin-degrading enzyme [3] = target: T3, Insulin-degrading enzyme (Homo sapiens, UniProt P14735); assay: activators of recombinant IDE enzyme, dose response, counter-screen for IDE activator project, biochemical, fluorescence polarization (AID 588681)
T3 sequence (P14735 whole entry): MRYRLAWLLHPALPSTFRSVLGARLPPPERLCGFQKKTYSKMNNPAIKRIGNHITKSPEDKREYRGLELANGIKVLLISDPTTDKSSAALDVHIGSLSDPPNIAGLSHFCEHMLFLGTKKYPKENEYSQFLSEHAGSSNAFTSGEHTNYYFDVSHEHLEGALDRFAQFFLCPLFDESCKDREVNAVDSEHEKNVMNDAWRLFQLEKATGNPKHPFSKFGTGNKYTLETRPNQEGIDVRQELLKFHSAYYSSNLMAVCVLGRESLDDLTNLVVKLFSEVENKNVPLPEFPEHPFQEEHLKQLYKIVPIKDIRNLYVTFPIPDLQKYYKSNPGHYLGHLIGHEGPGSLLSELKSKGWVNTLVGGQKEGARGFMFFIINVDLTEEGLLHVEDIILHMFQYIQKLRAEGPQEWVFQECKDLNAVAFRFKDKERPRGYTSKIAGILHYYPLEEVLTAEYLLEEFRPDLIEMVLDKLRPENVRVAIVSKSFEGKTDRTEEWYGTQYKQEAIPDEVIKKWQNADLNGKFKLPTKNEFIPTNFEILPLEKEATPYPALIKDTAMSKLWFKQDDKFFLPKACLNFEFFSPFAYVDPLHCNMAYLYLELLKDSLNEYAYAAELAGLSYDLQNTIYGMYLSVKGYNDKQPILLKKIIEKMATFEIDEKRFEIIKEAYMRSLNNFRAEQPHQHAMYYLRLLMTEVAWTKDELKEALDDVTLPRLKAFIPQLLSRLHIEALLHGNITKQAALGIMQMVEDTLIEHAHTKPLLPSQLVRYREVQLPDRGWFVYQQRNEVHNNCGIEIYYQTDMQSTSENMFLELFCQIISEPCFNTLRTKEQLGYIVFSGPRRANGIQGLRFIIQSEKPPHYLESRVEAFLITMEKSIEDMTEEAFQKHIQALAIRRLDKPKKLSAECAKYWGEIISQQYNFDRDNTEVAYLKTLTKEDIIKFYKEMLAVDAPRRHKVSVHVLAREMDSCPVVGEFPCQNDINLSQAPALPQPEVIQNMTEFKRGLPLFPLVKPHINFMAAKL

Insulin-degrading enzyme [4] = target: T3, Insulin-degrading enzyme; assay: activators of endogenous IDE in HEK cells, dose response, cell-based, fluorescence polarization (AID 588439); format: functional
HEK293 [5] = assay: HEK cell cytotoxicity by LDH release, dose response, cytotoxicity control for IDE activator project, fluorescence, HEK cells (AID 588440); format: functional, cell-based; conditions: Homo sapiens;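 note: cytotoxicity by LDH release measuring loss of membrane integrity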
HEK293 [6] = assay: optical interference in Abeta FP readout, dose response, artefact control for IDE activator project, biochemical, fluorescence polarization (AID 588442); format: functional, cell-based; conditions: Homo sapiens
[7] = Luminescence Cell-Based Dose Confirmation HTS to Identify Activators of 5'UTR Stem-Loop Driven Alpha-Synuclein mRNA Translation in H4 Neuroglioblastoma Cells. [Related pubchem assays: 1829 (Project Summary), 1814 (Primary HTS)]; format: functional
[8] = Luminescence Cell-Based Dose Response HTS to Identify Activators of Luciferase Translation or Activity in H4 […] Cells. [Related pubchem assays: 1829 (Project Summary), 1814 (Primary HTS)]; format: functional
H4 = assay: Luminescence Cell-Based Dose Response HTS to Identify Activators of 5'UTR Stem-Loop Driven Prion Protein mRNA Translation in H4 Neuroglioblastoma Cells. [Related pubchem assays: 1829 (Project Summary), 1814 (Primary HTS)]; format: functional; conditions: Homo sapiens

Structure (SMILES) | EC50 (Insulin-degrading enzyme [3]) | EC50 (Insulin-degrading enzyme [4]) | IC50 (HEK293 [5]) | EC50 (HEK293 [6]) | further results
C[C@@H]1CN([C@@H](C)CO)C(=O)c2cccc(NC(=O)Nc3cccc4ccccc34)c2O[C@H]1CN(C)C(=O)NC1CCCCC1 |  |  |  |  | AC50 [1]: 37.8 µM (active); AC50 (INS1): 24.6 µM (active); AC50 [2]: 5.39 µM (active)
O=c1c2ccccc2nc(/C=C/c2cccnc2)n1Cc1ccc(F)cc1 |  |  |  |  | IC50 (Hexokinase-1): > 80 µM (inactive); IC50 (Hexokinase HKDC1): > 80 µM (inactive)
NC(=O)Cn1cc(/C=N\NS(=O)(=O)c2ccc(Cl)cc2)c2ccccc21 | > 54.7 µM (inactive) | > 54.7 µM (inactive) | > 89.1 µM (inactive) | > 55.9 µM (inactive) | 
Cc1ccc(NC(=O)C2C3C=CC4(CN(Cc5cccnc5)C(=O)C24)O3)cc1 (stereo unspecified) | > 54.7 µM (inactive) | > 54.7 µM (inactive) | > 89.2 µM (inactive) | > 55.9 µM (inactive) | EC50 [7]: > 120 µM (not active); EC50 [8]: 11.9 µM (active); EC50 (H4): 14 µM (active)
